Consider 7 compounds from patent EP4813463A2, “TYK2 INHIBITORS AND COMPOSITIONS AND METHODS THEREOF” (Lynk Pharmaceuticals Co. Ltd., priority 2023, dated 2024).

The test system of experiment [1] is Ba/F3-FL-TYK2-P760L cells. As to the kind of experiment: Anti-proliferative assay in engineered Ba/F3 cells (Cell-Titer Glo, 72 h). It is filed as cell-based. The settings on record: 72 h compound treatment, concentration that causes 50% growth inhibition, read-out: Baf3-FL-T2P760L. The method, boiled down:
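Ba/F3 cells carrying Tel-dimerization/JAK kinase fusion, IL-3-independent, in RPMI-1640 + 10% FBS; 9-point 3-fold dilutions from 20 µM (0.1% DMSO) added after 24 h, 72 h at 37 °C. Viability by Cell-Titer Glo ATP luminescence; % inhibition versus DMSO cells, blank-corrected, giving IC50.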

The next experiment has as its target T1, TYK2-JH2 domain (Homo sapiens, UniProt P29597).
T1 construct: JAK1-JH2 domain or TYK2-JH2 domain enzyme in assay buffer
Briefly: Binding activity test for JH2 domain of TYK2 (Tb-antibody/tracer FRET). The note with it: for pIC50: JH2 domain enzyme, 60 min at 25°C, then 4°C overnight, read-out: TYK2 JH2 Binding IC50; for JAK1/TYK2 selectivity: ratio of JAK1 JH2 to TYK2 JH2 binding IC50. The method, boiled down:
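Competitive TR-FRET binding: compounds dispensed as an 11-point 3-fold dilution series, then Tb-labelled antibody and tracer added to the JH2 protein system. Incubated at 25°C, then overnight at 4°C; FRET signal read on Envision and IC50 (nM) derived.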

A further experiment concerns the target T2, JAK1-JH2 domain (Homo sapiens, UniProt P23458).
T2 construct: JAK1-JH2 domain or TYK2-JH2 domain enzyme in assay buffer
As to the kind of experiment: Binding activity test for JH2 domain of JAK1 (Tb-antibody/tracer FRET). The note with it: JH2 domain enzyme; 60 min at 25°C, then 4°C overnight; read-out: JAK1 JH2 Binding IC50. As for the experimental part: Binding Activity test for JH2 domain of JAK1 and TYK2 […] Add 8μL/well in echo source plate, echo will add 75nL/well with 3-fold serial dilution for 11 points in assay plate. 75nL DMSO for high control and low control. […] For low control, add 5μL/well assay buffer. And then spin down at 1000rpm and centrifuge for 30 seconds. After enzyme system prepared, add 5μL of Tb-antibody solution into each well of assay plate. Spin down at 1000 rpm and centrifuge for 30sec. After Tb-antibody added, also add 5μL of tracer into the assay plate. Spin down at 1000rpm and centrifuge for 30sec. Incubate for […] at 25°C firstly and then continue to incubate the plate at 4°C overnight. Read by envision in FRET mode. The Luminescence value was recorded by a multi-label reader Envision (PerkinElmer). […] Table 2. IC50 on JH2 domain activity (nM)

pIC50: −log10 of the molar value. Where two headings read alike, the source gives them in different places.

T2 sequence (P23458 583-855 limits assumed): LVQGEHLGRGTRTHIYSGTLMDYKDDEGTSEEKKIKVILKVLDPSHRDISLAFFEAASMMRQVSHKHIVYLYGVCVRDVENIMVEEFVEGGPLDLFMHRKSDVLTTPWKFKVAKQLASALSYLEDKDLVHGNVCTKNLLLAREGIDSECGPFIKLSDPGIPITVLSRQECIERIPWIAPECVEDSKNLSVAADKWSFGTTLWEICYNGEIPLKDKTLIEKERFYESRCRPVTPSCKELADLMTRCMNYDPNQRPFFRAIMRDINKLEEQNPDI
T1 sequence (P29597 589-875 limits assumed): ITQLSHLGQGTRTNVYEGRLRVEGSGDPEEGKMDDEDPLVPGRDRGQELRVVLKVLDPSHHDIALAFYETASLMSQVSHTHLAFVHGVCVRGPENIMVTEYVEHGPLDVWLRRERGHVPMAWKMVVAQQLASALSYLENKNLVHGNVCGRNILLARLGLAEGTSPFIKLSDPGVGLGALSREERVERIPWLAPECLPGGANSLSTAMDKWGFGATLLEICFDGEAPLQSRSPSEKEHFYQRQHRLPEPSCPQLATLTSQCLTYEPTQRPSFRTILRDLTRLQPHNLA

Turning to `[2H]C([2H])([2H])NC(=O)c1cnc(NC(=O)[C@@H]2C[C@@H]2F)cc1Nc1cnn2ccc(C(O)C(F)(F)F)c(OC)c12` (single isomer, unassigned) [Example 15B, 6-((1S,2S)-2-fluorocyclopropane-1-carboxamido)-4-((4-methoxy-5-((R*)-2,2,2-trifluoro-1-hydroxyethyl)pyrazolo[1,5-a]pyridin-3-yl)amino)-N-(methyl-d3)nicotinamide], the pIC50 in experiment [1] was 6.06; on TYK2-JH2 domain it was 9.43; on JAK1-JH2 domain, 7.70. In addition, the JAK1/TYK2 selectivity on TYK2-JH2 domain is recorded as 53.3.

`[2H]C([2H])([2H])NC(=O)c1cnc(NC(=O)C2CC23CC3)cc1Nc1cnn2ccc([C@H](O)C(F)(F)F)c(OC)c12` (single isomer, unassigned) [Example 32B, 4-((4-Methoxy-5-((S)-2,2,2-trifluoro-1-hydroxyethyl)pyrazolo[1,5-a]pyridin-3-yl)amino)-N-(methyl-d3)-6-((R*)-spiro[2.2]pentane-1-carboxamido)nicotinamide]: the pIC50 in experiment [1] was 7.56; at TYK2-JH2 domain, 9.97; at JAK1-JH2 domain it was 7.94. In addition, the JAK1/TYK2 selectivity on TYK2-JH2 domain is listed as 106.2.

Regarding `[2H]C([2H])([2H])CC(=O)c1cnc(NC(=O)C2CC2)cc1Nc1nn(C)c2ccc(C(OC)C(F)(F)F)c(OC)c12` (single isomer, unassigned) [Example 65A, (R*)-N-(4-((4-methoxy-1-methyl-5-(2,2,2-trifluoro-1-methoxyethyl)-1H-indazol-3-yl)amino)-5-(propanoyl-3,3,3-d3)pyridin-2-yl)cyclopropanecarboxamide], the pIC50 in experiment [1] is 6.93; at TYK2-JH2 domain it was 9.27; at JAK1-JH2 domain, less than 6.53. Also, the JAK1/TYK2 selectivity on TYK2-JH2 domain is recorded as greater than 553.80.

For `[2H]C([2H])([2H])CC(=O)c1cnc(NC(=O)C2CC2)cc1Nc1nn(C)c2ccc(C(OC)C(F)(F)F)c(OC)c12` (single isomer, unassigned) [Example 65B, (S*)-N-(4-((4-methoxy-1-methyl-5-(2,2,2-trifluoro-1-methoxyethyl)-1H-indazol-3-yl)amino)-5-(propanoyl-3,3,3-d3)pyridin-2-yl)cyclopropanecarboxamide], the pIC50 in experiment [1] was 8.68; on TYK2-JH2 domain, 10.05; on JAK1-JH2 domain it was 7.90. In addition, the JAK1/TYK2 selectivity at TYK2-JH2 domain was 144.84.

Consider `[2H]C([2H])([2H])NC(=O)c1nnc(NC(=O)C2CC23CC3)cc1Nc1cnn2ccc([C@H](O)C(F)(F)F)c(OC)c12` (single isomer, unassigned) [Example 82A, 4-((4-Methoxy-5-((S)-2,2,2-trifluoro-1-hydroxyethyl)pyrazolo[1,5-a]pyridin-3-yl)amino)-N-(methyl-d3)-6-((R*)-spiro[2.2]pentane-1-carboxamido)pyridazine-3-carboxamide], for which the pIC50 in experiment [1] (Mus musculus, BaF3, 72 h) is 7.46; on TYK2-JH2 domain it was 9.68; on JAK1-JH2 domain it was 8.10. The JAK1/TYK2 selectivity on TYK2-JH2 domain was determined as 38.29.

Turning to `[2H]C([2H])([2H])NC(=O)c1nnc(NC(=O)C2CC23CC3)cc1Nc1cnn2ccc([C@H](O)C(F)(F)F)c(OC)c12` (single isomer, unassigned) [Example 82B, 4-((4-Methoxy-5-((S)-2,2,2-trifluoro-1-hydroxyethyl)pyrazolo[1,5-a]pyridin-3-yl)amino)-N-(methyl-d3)-6-((S*)-spiro[2.2]pentane-1-carboxamido)pyridazine-3-carboxamide], the pIC50 in experiment [1] is 7.57; on TYK2-JH2 domain it was 9.64; at JAK1-JH2 domain, 8.20. Besides, at TYK2-JH2 domain, the JAK1/TYK2 selectivity turned out to be 27.48.

Turning to `[2H]C([2H])([2H])NC(=O)c1cnc(NC(=O)C2CC23CC3)cc1Nc1nn(C)c2ccc([C@H](O)C(F)(F)F)c(OC)c12` (stereo partly drawn) [Example 199, 4-((4-Methoxy-1-methyl-5-((S)-2,2,2-trifluoro-1-hydroxyethyl)-1H-indazol-3-yl)amino)-N-(methyl-d3)-6-(spiro[2.2]pentane-1-carboxamido)nicotinamide], the values for the pIC50 on TYK2-JH2 domain and at JAK1-JH2 domain were 10.04 and 8.25, respectively. For the same compound, at TYK2-JH2 domain, the JAK1/TYK2 selectivity is recorded as 61.34.
